From patent publication US20110166066A1, “CATESTATIN (CST) AND ITS VARIANTS FOR TREATMENT OF CARDIOVASCULAR AND METABOLIC DISORDERS” (priority 2008, published 2011)
No end group written: not given here.

How the values were obtained:
[1] = test system: Langendorff perfused rat heart; assay: WT-CST inotropism/lusitropism in presence of adrenergic, cholinergic, Gi/o and NO-pathway inhibitors (Langendorff heart); conditions: for Negative inotropism with muscarinic receptor antagonist: WT-CST 110 nM + Atropine 10 nM; for Negative inotropism with β-adrenoceptor antagonist: WT-CST 110 nM + Nadolol 10 nM; for Negative inotropism with α-adrenoceptor antagonist: WT-CST 110 nM + Phentolamine 100 nM; for Negative inotropism with Gi/o protein inhibition: WT-CST 110 nM after PTx 0.01 nM; for LVP change: preliminary experiments
Description: Adrenergic and cholinergic receptors involvement—To obtain information on the involvement of β1/β2, α-adrenergic receptors (ARs) and cholinergic receptors (AchR) on the inotropic and lusitropic effects induced by WT-Cts, cardiac preparations, stabilized for 20 min with KHs, were perfused with Nadolol (10 nM) or Phentolamine (100 nM) or Atropine (10 nM) for 10 min and then washed-out with KHs. After returning to control conditions, each heart was perfused with KHs containing a single concentration of Cts WT (110 nM) plus Nadolol (10 nM) or Phentolamine (100 nM) or Atropine (10 nM) for an additional 10 min.
Involvement of inhibitory G-protein (Gi/o)—To evaluate the involvement of inhibitory G-proteins in the cardiac action of WT-Cts, hearts were preincubated for 60 min with KHs enriched with pertussis toxin (PTx: 0.01 nM) and then exposed for 10 min to WT-Cts (110 nM). PTx catalyzes ADP-ribosylation of Gi/o alpha-subunit, uncoupling Gi-membrane receptor interaction.
NO-pathway inhibitor stimulated preparations—Hearts were stabilized for 20 min with KHs, perfused with 110 nM WT-Cts for 10 min and then the peptide was washed-out with KHs. After returning to control conditions, each heart was perfused with KHs containing either the NO scavenger PTIO, the non-specific NOS inhibitor L-NMMA, a soluble guanylate cyclase inhibitor (ODQ) or a protein kinase G blocker (KT5823). Subsequently, the hearts were exposed to the specific signaling inhibitor plus 110 nM of WT-Cts.

[2] = test system: PLN (phospholamban) Ser16; assay: Immunoblot of phosphorylated PLN in WT-CST perfused hearts; design: species or system rat; conditions: 110 nM
Description: Cardiac signaling—Hearts were perfused with or without 110 nM WT-Cts as before. At the end of experiment hearts were snap frozen under liquid nitrogen and homogenized with 1 ml of ice cold 0.2 M sucrose, Tris maleate (pH 7.0) buffer supplemented with 2 mM EDTA, pH 8.0, 1 mM sodium orthovanadate, 10 mM sodium pyrophosphate, 1 mM phenylmethylsulfonyl fluoride, 10 μg/ml leupeptin, 10 μg/ml aprotinin and 0.1 mM 3-isobutyl-1-methylxanthine. SR membrane fractions were isolated from cytosolic proteins as described before (27). Protein content was determined by Bradford assay (BIO-RAD) and 100 μg of cytosolic protein was subjected to SDS-PAGE immunoblot analysis for phosphorylated-ERK, total ERK (P-ERK and T-ERK; Santa Cruz, Calif.). […]
Statistics—Data are expressed as the mean±SEM. Curve fitting was accomplished in the program Kaleidagraph (Synergy Software, Reading, Pa.). […] For analysis of phosphorylated proteins, levels were quantified using Bio-Rad QuantifyOne and volumes of phosphorylated proteins were divided by the levels of non-phosphorylated proteins to calculate fold activation. Stimulation of protein activity was expressed as fold increase over vehicle-treated control. The means and S.E.M. were calculated for each treatment. […]

[3] = test system: WT and Chga knockout (KO) mice; assay: BP and HR by telemetry in immobilization stress, conscious mice; type: in vivo
Description: Animals. Chga knockout (KO) mice and their wild-type (WT) littermates were generated as described (13). All animals were housed on a 12 hr light dark cycle and fed a standard rodent chow. The Animal Care and Use Committee of University of California at San Diego approved all protocols for animal use and euthanasia in accordance with National Institute of Health guidelines. Both WT and KO mice (5-6 month old) in this study were from mixed (129 SvJ and C57BL/6) genetic background.
Conscious mice. Measurement of BP and HR in immobilization stress-induced telemetered mice: BP & HR were measured by telemetry as described previously (13). The experiments were initiated 10 days after the surgery. Immobilization stress was initiated by placing mice in restrainer (Braintree Scientific Inc, Braintree, Mass.) at 10:00 AM and kept for 2 hrs for continuous recording of BP and HR by telemetry followed by recovery from stress in home cages for 2 hrs. CST was injected (40 μg/g bw ip) 30 minutes before stress induction to explore the role of CST in stress response.

[4] = test system: WT, CgA-KO and HFD fed insulin resistant mice; assay: Blood glucose / glucose tolerance tests; type: in vivo
Description: Adult WT (C57BL/6) and CgA-KO mice with mixed genetic background (129svJ×C57BL/6) were used in this study. Both WT and KO mice were generated from the original founder carrying mixed genotype (50% 129svJ: 50% C57BL/6) and were maintained by brother/sister mating. Hypertensive CGA-KO mice will serve as a model for hyper insulin sensitivity. WT mice were fed 60% high fat diet (HFD) for 20 weeks. Body weight and blood glucose levels were monitored and glucose and insulin tolerance testa were performed to determine status of insulin resistance. After 20 weeks of HFD feeding mice were injected IP with catestatin (40 μg/gm body weight) twice daily for 7 days. On the 8th day, 12 hours fasted mice were subjected to glucose tolerance tests to determine their insulin sensitivity. Tissues of WT and CgA-KO mice are analyzed AMPK and eNOS signalling by immunoblotting.

SSMKLSFRARAYGFRGPGPQL [WT-CST, catestatin]
Negative inotropism with muscarinic receptor antagonist [1]: remained unaffected | Negative inotropism with muscarinic receptor antagonist ([1]; listed as WT-Cts): Unchanged | CST-induced changes in cardiac performance with PKG inhibition by KT5823 ([1]; WT-CST 110 nM + KT5823 0.1 μM): failed to affect | Negative inotropism and lusitropism with NOS inhibition by L-NMMA ([1]; WT-CST 110 nM + L-NMMA 10 μM): abolished | Negative inotropism with β-adrenoceptor antagonist [1]: abolished | Negative inotropism with β-adrenoceptor antagonist ([1]; listed as WT-Cts): Abolished | Negative inotropism and lusitropism with sGC blockade by ODQ ([1]; WT-CST 110 nM + ODQ 10 μM): abolished | Negative inotropism and lusitropism with NO removal by PTIO ([1]; WT-CST 110 nM + PTIO 10 μM): abolished | Negative inotropism with α-adrenoceptor antagonist [1]: reduced | Negative inotropism with α-adrenoceptor antagonist ([1]; listed as WT-Cts): Reduced | Negative inotropism with Gi/o protein inhibition [1]: abolished | Negative inotropism with Gi/o protein inhibition ([1]; listed as WT-Cts): Abolished | Negative inotropism with eNOS-NO-cGMP-PKG pathway inhibition ([1]; WT-CST 110 nM, Table 1): Abolished | LVP change ([1]; WT-Cts + L-NIO (eNOS selective inhibitor)): 5.04±1.69 | LVP change ([1]; WT-Cts + Vinyl-L-NIO (nNOS selective inhibitor)): −13.14±2.25 | LVP change ([1]; WT-Cts alone): −18.19±2.27 | Phosphorylation of PLN at Ser16 [2]: inhibited | Heightened HR responses to stress ([3]; KO mice): abolished | SBP after 1 h of recovery from the stress ([3]; KO mice): brought SBP to WT level | Basal SBP ([3]; KO mice, 40 μg/g bw ip): decreased | Stress-induced increments in SBP ([3]; KO mice, 40 μg/g bw ip): attenuated | HR AUC ([3]; KO mice, stress and recovery): 143340±1889 | SBP AUC ([3]; KO mice, stress and recovery): 26639±399 | Basal or stress-induced increments in DBP ([3]; WT and KO mice): no significant effect | Basal and stress-induced increase in HR ([3]; WT mice): no effect | Basal SBP ([3]; WT mice, 40 μg/g bw ip): no effect | Attenuation of stress-induced increments in SBP ([3]; WT mice, 40 μg/g bw ip 30 min before stress): 7.1 mmHg | Peak blood glucose level ([4]; HFD fed insulin resistant mice, 40 μg/gm IP twice daily 7 days): reduced | Blood glucose level ([4]; WT and CgA-KO mice): raised | Reduction of blood glucose level (glucose tolerance tests) ([4]; insulin-resistant HFD mice): 15-20%
